The numbers were not newly measured in patent publication US10188610B2, “Prolonged-release diphenidol composition” (INVEKRA, S.A.P.I. DE C.V., priority 2013, dated 2019), which cites them from elsewhere.

SMILES strings stand for the structures. Where a name gives a salt, the structure may show the parent alone.

The conditions of this series: after oral administration.

In the case of `OC(CCCN1CCCCC1)(c1ccccc1)c1ccccc1` [Diphenidol hydrochloride, α,α-diphenil-1-piperidinebutanol], the half life was 4 h.
